Measured values: a melting point compilation (Tetko et al.; mined from patent text by program, amines drawn as free bases though some values may be those of a salt)

Compound | melting point
OC(Cn1cncn1)(c1ccc(F)cc1F)C(F)n1cncn1 (stereo unspecified) | 117 to 123 °C
COCC1CN(c2ccc(C3CCC4(CC3)OCCO4)cn2)C(=O)O1 (racemic) | 117 to 121 °C
CCOC(=O)c1cc([N+](=O)[O-])c(=O)[nH]c1C(=O)OCC | 144 to 145 °C
O=C(NC(NC(=S)Nc1ccccc1F)C(F)(F)F)c1ccc(Cl)cc1 (stereo unspecified) | 197 to 200 °C
CC(C)(C)OC(=O)Nc1nc(/C(=N/OC(c2ccccc2)(c2ccccc2)c2ccccc2)C(=O)O)cs1 | 157 to 158 °C
O=[N+]([O-])C=Cc1cc(OCc2ccccc2)c(OCc2ccccc2)cc1[N+](=O)[O-] | 162 to 164 °C
O=C(O)c1ccccc1Oc1ccc(C(F)(F)F)cc1NS(=O)(=O)c1ccccc1 | 177 °C
COC(=O)C=CCOc1ccc(F)c(C(N)=O)c1F | 122 to 123 °C
O=C(C1CN(S(=O)(=O)c2ccc3cc(Br)ccc3c2)CCN1C(=O)C1CCN(c2ccncc2)CC1)N1CCSCC1 (stereo unspecified) | 250 to 258 °C
COCc1ccc(-c2cn(-c3cc(C(=O)OC)c([N+](=O)[O-])cc3C(F)(F)F)cn2)cc1 | 135 to 137 °C
CC1(C)CCC(C)(C)c2cc(NC(=O)c3ccccc3)ccc21 | 146 to 148 °C
CON1C(C)(C)CC(OC(=O)c2cc(C(C)(C)C)c(O)c(C(C)(C)C)c2)CC1(C)C | 126 to 128 °C
CN(C)CCCN1C(=O)C(NC(=O)Nc2ccccc2)C(=O)N(CC23CC4CC(CC(C4)C2)C3)c2ccccc21 (stereo unspecified) | 138 to 140 °C
CC1(C)OCCC(NC(=O)c2cnccc2C(F)(F)F)O1 (stereo unspecified) | 155 to 156 °C
O=C(OCc1ccccc1)C1=C(S(=O)c2ccccc2)CC2CC(=O)N12 (stereo unspecified) | 129 to 131 °C
CC(=O)Oc1ccccc1C1CCC(=O)CC1 | 86 to 87 °C
Nc1cc(F)c(Cl)c(Br)c1Cl | 126 to 130 °C
CC(C)(C)c1cc(-c2nnc(NN)s2)cc(C(C)(C)C)c1O | 109 to 122 °C
O=C(O)CCC(c1cc(F)ccc1F)S(=O)(=O)c1ccc(Cl)cc1 (stereo unspecified) | 157 to 158 °C
Cc1cc(Cl)ccc1Br | 91 to 95 °C
Cc1ccc(S(=O)(=O)OC2COc3ccc4ncccc4c3C2)cc1 (stereo unspecified) | 168 to 170 °C
CC(C)(C)c1cc(CC(S)C(=O)O)cc(C(C)(C)C)c1O (stereo unspecified) | 137 to 140 °C
CCOC(=O)c1cnc(CC)nc1NCc1ccc(-c2ccccc2-c2nnnn2C(c2ccccc2)(c2ccccc2)c2ccccc2)cc1 | 134 to 136 °C
O=C(c1nccs1)c1cnn2c(-c3cccc(NC(=O)C4CC4)c3)ccnc12 | 226 to 229 °C
O=C(O)c1cn2c3c(cccc3c1=O)C1CCCCC12 (stereo unspecified) | 238 to 241 °C
O=C(NC1CN2CCC1CC2)c1cccc2nc(-c3ccc(Cl)cc3)oc12 (stereo unspecified) | 181 to 183 °C
c1cc(C2CCCCC2)ccc1N=C1NCCCN1 | 179 to 181 °C

Compound | melting point
CCCOc1ccc2[nH]c(C(=O)O)cc2c1 | 155 °C
CSC(=NCCSCc1nccs1)NC(=O)c1ccccc1 | 64 to 65 °C
O=C1CSC(c2cccnc2)N1 (stereo unspecified) | 135 to 137 °C
CNNc1nncc(-c2ccccc2)n1 | 112 to 113 °C
COc1ccc(C2CN(c3cc(C)c4c(c3C)CC(C)(C)O4)CCO2)cc1 (stereo unspecified) | 107 to 108 °C
Cc1c(-c2ccnnc2)ssc1=S | 146 °C
Cc1ccc2c(c1)C(C(=O)Nc1ccccc1)c1ccccc1CO2 (stereo unspecified) | 129 to 130 °C
O=C(O)CCc1ccc(C(=O)c2c(-c3ccc(O)cc3)sc3cc(O)ccc23)cc1 | 244 to 248 °C
CCCc1c2c(cc3c(=O)cc(C(=O)OCC)oc13)CCCC2 | 98 to 99.5 °C
Cn1cc(C(=O)O)c(=O)c2cc(F)c(N3CCCN(c4ncccn4)CC3)c(C(F)(F)F)c21 | 243 to 245 °C
CCCC(=NOCC)C1=C(O)CC(c2ccc(C=O)cc2)CC1=O (stereo unspecified) | 81 to 82 °C
CC(C)S(=O)(=O)c1ccc2c(c1)nc(CC1(C)CCCC1)n2CC1CC1 | 122 °C
O=C(NC[C@H]1O[C@H]1c1ccccc1)c1ccc(NC(=O)C(F)(F)F)cc1 (racemic) | 190 °C
O=C(O)C1CCCc2sc(=O)[nH]c21 (stereo unspecified) | 192 °C
COc1ccc(C2=NN(C3CCN(S(=O)(=O)c4cccc5c(N(C)C)cccc45)CC3)C(=O)[C@@H]3CC=CC[C@H]23)cc1OC | 198 to 200 °C
O=C(O)COc1cccc(OCCC(c2ccccc2)(c2ccccc2)c2ccccc2)c1 | 69 to 71 °C
C=CCN1CC(C)N(C(c2cccc(O)c2)c2cc(C(=O)N(CC)CC)cs2)CC1C (stereo unspecified) | 108 to 112 °C
Cc1nc2n(n1)C(N1CCN(C)CC1)=Nc1ccccc1C2 | 185 to 187 °C
COc1c2c(c(OC)c(OC)c1OC)CC(CCCCOc1ccc(C(=O)O)cc1)C2 | 136 to 138 °C
Cc1cccc2c1C(=O)N(C)Cc1c(C#CC(C)(C)O)ncn1-2 | 165 to 167 °C
CCCc1cc(CP(=O)(OC)OC)c2c(CP(=O)(OC)OC)cccc2c1OC | 69 to 70 °C
N#CC(C=O)c1cccc(C(F)(F)F)c1 (stereo unspecified) | 103 to 106 °C
COCc1cccc(CC=NO)c1[N+](=O)[O-] | 92 to 95 °C
CC1(C)CCC(C)(C)c2cc(CCCC(=O)O)ccc21 | 99 °C
CC(=O)NC(C)(C)CNc1c(C)c(C)n2nnnc2c1[N+](=O)[O-] | 200 to 202 °C
CCOC(=O)/C(CCO[N+](=O)[O-])=C(\c1ccc(Cl)cc1)c1ccc(S(C)(=O)=O)cc1 | 127 to 128 °C
Nc1ccc([N+](=O)[O-])cc1S(=O)(=O)CCO | 175 °C

Now from value to compound:

melting point | Compound
> 300 °C | Nc1nc2c(c(=O)[nH]1)CCc1ccccc1-2
187 to 190 °C | O=C(O)c1cn2c(-c3ccccc3)ncc2c2ccccc12
129 to 131 °C | O=C(Nc1nc(OCc2ccc(F)cc2)ncc1F)Oc1ccccc1
214 to 215 °C | COc1ccc(C(=O)c2c(N)sc3c2CCC3)c2ccccc12
103 to 105 °C | CC(C)N1CCN(CCCOc2ccc3nc(C#N)nc(NCC(C)(C)C)c3c2)CC1
152 °C | COc1ccc2c(c1)C(=C1CCN(Cc3ccccc3)CC1)C(=O)N2
176 to 178 °C | COc1cccc2c1C(=O)c1c(OC)cc(CBr)cc1C2=O
195 to 198 °C | CC(C)(C)c1cc(NC(=O)Nc2cccc(Cl)c2Cl)c(-c2ccncc2)o1
147 to 148 °C | CCc1noc(-c2cn(-c3ccc(OC)cc3)cn2)n1
105 to 115 °C | Cc1cccc(C(=O)Nc2ccc3c(c2)CC(N(C)Cc2ccccn2)C3)c1-c1ccc(C(F)(F)F)cc1 (stereo unspecified)
238 to 239 °C | c1ccc2c(c1)ncc1nncn12
140 to 142 °C | CCC(O)(Cn1cncn1)c1ccc(Oc2ccc(Cl)cc2)cc1Cl (stereo unspecified)
254 °C | O=C(Nc1ccc2ccc(Cl)nc2n1)c1ccsc1
193 to 195 °C | CC(C)Cn1c(=O)c(-c2c(Cl)cccc2Cl)cc2cnc(N)nc21
182 to 183 °C | Cc1cccc(-n2nc(C)cc2-c2cc[nH]c(=O)c2)c1
298 to 300 °C | Cn1cnc2nc(-c3cc(Cl)c(Cl)cc3C(=O)O)nn2c1=S
204 °C | COc1ccc2cccc(N3C(=O)CN(CC#N)CC3=O)c2c1
85 to 87 °C | COC(=O)N(C)c1ccc(OCc2nc3ccccc3s2)cc1
128 to 130 °C | Cc1cc(C)c(N2C(=N)N(c3c(C)cccc3C)CC2C)c(C)c1 (stereo unspecified)
253 to 254 °C | O=c1[nH]c2ccccc2c2ccnn12
178 to 179 °C | CCOC(=O)c1ccc(-c2cnc3c(c2)N(Cc2ccccc2)CCN3)cc1
172 to 174 °C | NS(=O)(=O)c1cccc(Cl)c1C=C1CCOC1=O
82 °C | COC(=O)N(C)CCCCC(=O)OC[C@@H]1CC(c2ccc(-c3ccc(N4C[C@H](Cn5ccnn5)OC4=O)cc3F)cn2)=NO1
240 to 242 °C | NC(=O)c1cc(-c2ccnc(Nc3cccc(C(F)(F)F)c3)n2)ccn1

melting point | Compound
240 to 241 °C | O=C1NC(=O)C2(N1)C(=O)N(Cc1ccc(Br)cc1F)c1c(Cl)cccc12 (stereo unspecified)
176 to 178 °C | Cc1noc(NS(=O)(=O)c2cccc3cccnc23)c1C
172 to 174 °C | Cc1ccc(NCC2CCN(C(C)C)CC2)c(C(=O)Nc2ccc(Cl)cn2)c1
198 to 200 °C | COc1ccccc1-c1nc(-c2cccnc2)c(C)[nH]1
178 to 180 °C | Cn1cc(C(=O)NCc2ccc(Cl)cc2)c(=O)c2cc(CN3CCOCC3)cc(C#CCn3ccnc3)c21
216 to 220 °C | CSc1ncc2c(Cl)cc(I)n2n1
250 to 251 °C | COc1ccc(Nc2nc(=O)c3cccnc3s2)cc1
178 to 182 °C | CC(=O)N1CCCc2c1n(-c1ccccc1)c1c(c2=O)CCc2ccccc2-1
217 to 218 °C | CN(C)c1nc2sc3c(NCc4ccccn4)ncnc3c2c2c1COC(C)(C)C2
299 to 300 °C | CCc1[nH]n(C2CCCC2)c2nc(-c3cccc(OCC(=O)O)c3)nc(=O)c1-2
129 to 130 °C | COc1ccc(-c2cc(CN3CCN(C)CC3)c(=O)n(Cc3ccc(Cl)cc3)n2)cc1F
98 to 101 °C | CCOCc1nc2c(N)nc3cc(OCCCN4CCCC4=O)ccc3c2n1CCCCNC(=O)NC(C)C
176 to 178 °C | CCCOc1ccccc1-c1ccc(C(N)=O)c(=O)[nH]1
232 to 233 °C | Cc1c(S(=O)(=O)N(O)C(=N)Nc2ccc(Cl)c(Cl)c2)sc2ccc(Cl)cc12
84.4 to 86.8 °C | CC(=O)c1cc2ccccc2cn1
208 to 209 °C | O=C(O)c1cccc(Oc2ncccc2OCCCc2ccncc2)c1
104 to 106 °C | c1ccc2c(CSCc3cccc4ccccc34)cccc2c1
192 to 193 °C | Cc1[nH]cnc1/C=C/C(=O)c1coc2ccccc12
166 °C | CC(C)(C)c1cc(Cn2nc(-c3ccccc3)oc2=S)cc(C(C)(C)C)c1O
217 to 220 °C | Cn1c(=O)n(CC(=O)O)c(=O)c2cc([N+](=O)[O-])ccc21
264 to 267 °C | Cc1ccc(-c2coc3c(C)c(O)ccc3c2=O)cc1
100 °C | CCOC(=O)C(=O)Nc1c(C)oc2ccccc2c1=O
126 to 127 °C | COCCOc1ccc(/C=C(\C)C(=O)O)c(Oc2ncc(Cl)cc2Cl)c1
